According to US20020137929A1, “1 - (3-heterocyclylphenyl) isothiourea, -isourea, -guanidine and -amidine herbicidal agents” (Intellectual Property Department, BASF Aktiengesellschaft, priority 1998, published 2002):

Experiments:
[1] = tested on: CHEAL (Lambsquarters, Common); experiment: Postemergence herbicidal evaluation; assay type: in vivo, Chenopodium album; conditions: for Herbicidal rating CHEAL: postemergence
How it was run: (§1)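 Young plants, roughly two weeks from seeding, receive the active ingredient as a sprayed dispersion (acetone/water 50/50, 0.5% TWEEN 20) at 40 psi. Doses span about 0.0156 to 0.500 kg/ha. A visual score from 0 to 9 compares treated with control plants four to five weeks on.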

[2] = tested on: IPOHE (Morningglory, Ivyleaf); experiment: Postemergence herbicidal evaluation; assay type: in vivo, Ipomoea hederacea; conditions: for Herbicidal rating IPOHE: postemergence
How it was run: as §1

GALAP (Galium) = experiment: Preemergence herbicidal evaluation; assay type: in vivo, Galium aparine; conditions: rated 4-5 weeks after treatment
How it was run: (§2)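 Each species is sown separately in potting soil over roughly an inch of soil before any emergence. The soil surface then receives an aqueous acetone spray delivering about 0.0156 to 0.500 kg/ha of compound. After four to five weeks, injury is scored from 0 to 9 relative to a control.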

ECHCG (Barnyardgrass) = experiment: Preemergence herbicidal evaluation; assay type: in vivo, Echinochloa crus-galli; conditions: rated 4-5 weeks after treatment
How it was run: as §2

[3] = tested on: GLXMAW (Soybean, Williams); experiment: Preemergence herbicidal evaluation; assay type: in vivo, Glycine max, (L.) Merr. cv Williams; conditions: rated 4-5 weeks after treatment
How it was run: as §2

[4] = rate 0.0156 kg/ha, rating scale 0-9
[5] = rate 0.0313 kg/ha, rating scale 0-9
[6] = rate 0.0625 kg/ha, rating scale 0-9
[7] = rate 0.1250 kg/ha, rating scale 0-9
[8] = rate 0.2500 kg/ha, rating scale 0-9

Structure (SMILES)	Herbicidal rating CHEAL ([1]; rate 0.0156 kg/ha)	Herbicidal rating CHEAL ([1]; rate 0.0313 kg/ha)	Herbicidal rating CHEAL ([1]; rate 0.0625 kg/ha)	Herbicidal rating IPOHE ([2]; rate 0.0156 kg/ha)	Herbicidal rating IPOHE ([2]; rate 0.0313 kg/ha)	Herbicidal rating IPOHE ([2]; rate 0.0625 kg/ha)	Preemergence herbicidal rating GALAP (GALAP (Galium); 0.0156 kg/ha)	Preemergence herbicidal rating GALAP (GALAP (Galium); 0.0313 kg/ha)	Preemergence herbicidal rating GALAP (GALAP (Galium); 0.0625 kg/ha)	Preemergence herbicidal rating GALAP (GALAP (Galium); 0.1250 kg/ha)	Preemergence herbicidal rating GALAP (GALAP (Galium); 0.2500 kg/ha)	Preemergence herbicidal rating ECHCG (ECHCG (Barnyardgrass); 0.0156 kg/ha)	Preemergence herbicidal rating ECHCG (ECHCG (Barnyardgrass); 0.0313 kg/ha)	Preemergence herbicidal rating ECHCG (ECHCG (Barnyardgrass); 0.0625 kg/ha)	Preemergence herbicidal rating ECHCG (ECHCG (Barnyardgrass); 0.1250 kg/ha)	Preemergence herbicidal rating ECHCG (ECHCG (Barnyardgrass); 0.2500 kg/ha)	Preemergence herbicidal rating GLXMAW ([3]; 0.0156 kg/ha)	Preemergence herbicidal rating GLXMAW ([3]; 0.0313 kg/ha)	Preemergence herbicidal rating GLXMAW ([3]; 0.0625 kg/ha)	Preemergence herbicidal rating GLXMAW ([3]; 0.1250 kg/ha)	other results
Cn1c(C(F)(F)F)cc(=O)n(-c2cc(N=C3SCC(=O)N3C3CCC3)c(Cl)cc2F)c1=O [Compound 168, 3-{4-Chloro-5-[(3-cyclobutyl-4-oxo-2-thiazolidinylidene)amino]-2-fluorophenyl}-1-methyl-6-(trifluoromethyl)-2,4(1H,3H)-pyrimidinedione]	2.0	3.0	4.0	5.0	9.0	9.0	0.0	0.0	0.0	0.0	3.0	0.0	0.0	0.0	0.0	0.0	0.0	0.0	0.0	0.0	Preemergence herbicidal rating GLXMAW ([3]; 0.2500 kg/ha): 0.0
CC(C)N1C(=O)CSC1=Nc1cc(-n2c(=O)cc(C(F)(F)F)n(C)c2=O)c(F)cc1Cl [Compound 164, 3-{4-Chloro-2-fluoro-5-[(3-isopropyl-4-oxo-2-thiazolidinylidene)amino]phenyl}-1-methyl-6-(trifluoromethyl)-2,4(1H,3H)-pyrimidinedione]	9.0	9.0	9.0	9.0	9.0	9.0	3.0	4.0	4.0	9.0	7.0	0.0	7.0	7.0	9.0	9.0	1.0	2.0	5.0	7.0	Herbicidal rating CHEAL ([1]; rate 0.1250 kg/ha): 9.0; Herbicidal rating IPOHE ([2]; rate 0.1250 kg/ha): 9.0; Preemergence herbicidal rating GALAP (GALAP (Galium); 0.5000 kg/ha): 9.0; Preemergence herbicidal rating ECHCG (ECHCG (Barnyardgrass); 0.5000 kg/ha): 9.0; Preemergence herbicidal rating GLXMAW ([3]; 0.2500 kg/ha): 7.0; Preemergence herbicidal rating GLXMAW ([3]; 0.5000 kg/ha): 7.0
COCCCN1C(=O)CSC1=Nc1cc(-n2c(=O)cc(C(F)(F)F)n(C)c2=O)c(F)cc1Cl [Compound 172, 3-{4-Chloro-2-fluoro-5-{[3-(3-methoxypropyl)-4-oxo-2-thiazolidinylidene]amino}phenyl}-1-methyl-6-(trifluoromethyl)-2,4(1H, 3H)-pyrimidinedione]							0.0	0.0	5.0	7.0	9.0	4.0	6.0	8.0	8.0	9.0	1.0	2.0	7.0	9.0	Postemergence herbicidal rating CHEAL ([1]; Rate 0.0313 kg/ha): 9.0; Postemergence herbicidal rating CHEAL ([1]; Rate 0.0625 kg/ha): 9.0; Postemergence herbicidal rating CHEAL ([1]; rate 0.0156 kg/ha): 6.0; Postemergence herbicidal rating IPOHE ([2]; Rate 0.0313 kg/ha): 9.0; Postemergence herbicidal rating IPOHE ([2]; Rate 0.0625 kg/ha): 9.0; Postemergence herbicidal rating IPOHE ([2]; rate 0.0156 kg/ha): 9.0; Preemergence herbicidal rating GLXMAW ([3]; 0.2500 kg/ha): 9.0
Cc1cc(C)cc(CN2C(=O)CSC2=Nc2cc(-n3c(=O)cc(C(F)(F)F)n(C)c3=O)c(F)cc2Cl)c1 [Compound 146, 3-{4-Chloro-5-{[3-(3,5-dimethylbenzyl)-4-oxo-2-thiazolidinylidene]amino}-2-fluorophenyl}-1-methyl-6-(trifluoromethyl)-2,4(1H,3H)-pyrimidinedione]	9.0	9.0	9.0	9.0	9.0	9.0															Preemergence herbicidal rating GALAP (GALAP (Galium); [4]): 1.0; Preemergence herbicidal rating GALAP (GALAP (Galium); [5]): 0.0; Preemergence herbicidal rating GALAP (GALAP (Galium); [6]): 0.0; Preemergence herbicidal rating GALAP (GALAP (Galium); [7]): 2.0; Preemergence herbicidal rating GALAP (GALAP (Galium); [8]): 2.0; Preemergence herbicidal rating ECHCG (ECHCG (Barnyardgrass); [4]): 0.0; Preemergence herbicidal rating ECHCG (ECHCG (Barnyardgrass); [5]): 0.0; Preemergence herbicidal rating ECHCG (ECHCG (Barnyardgrass); [6]): 0.0; Preemergence herbicidal rating ECHCG (ECHCG (Barnyardgrass); [7]): 0.0; Preemergence herbicidal rating ECHCG (ECHCG (Barnyardgrass); [8]): 0.0; Preemergence herbicidal rating GLXMAW [3, 4]: 0.0; Preemergence herbicidal rating GLXMAW [3, 5]: 0.0; Preemergence herbicidal rating GLXMAW [3, 6]: 0.0; Preemergence herbicidal rating GLXMAW [3, 7]: 0.0; Preemergence herbicidal rating GLXMAW [3, 8]: 1.0
CCOC(=O)CN1C(=O)C(OC)SC1=Nc1cc(-n2c(=O)cc(C(F)(F)F)n(C)c2=O)c(F)cc1Cl (stereo not shown) [Compound 160, Ethyl 2-{{2-chloro-5-[3,6-dihydro-3-methyl-2,6-dioxo-4-(trifluoromethyl)-1(2H)-pyrimidinyl]-4-fluorophenyl}imino}-5-methoxy-4-oxo-3-thiazolidineacetate]	2.0	6.0	9.0	9.0	9.0	9.0	0.0	0.0	0.0	0.0	7.0	0.0	0.0	1.0	2.0	9.0	1.0	1.0	1.0	2.0	Herbicidal rating CHEAL ([1]; rate 0.1250 kg/ha): 9.0; Herbicidal rating IPOHE ([2]; rate 0.1250 kg/ha): 9.0; Preemergence herbicidal rating GALAP (GALAP (Galium); 0.5000 kg/ha): 7.0; Preemergence herbicidal rating ECHCG (ECHCG (Barnyardgrass); 0.5000 kg/ha): 9.0; Preemergence herbicidal rating GLXMAW ([3]; 0.2500 kg/ha): 9.0; Preemergence herbicidal rating GLXMAW ([3]; 0.5000 kg/ha): 9.0
